Measured values: patent US20130122147A1, “METHODS FOR ENHANCING THE PALATABILITY OF COMESTIBLE COMPOSITIONS” (priority 2010, published 2013)

System: dogs
Experiment: Two-bowl choice palatability test of pet foods
Assay type: in vivo
Method: Palatability testing followed the industry standard protocol for assessing preference, i.e., the two-bowl choice test. The dogs were tested individually inside their kennels. The panels consisted of a mix of breeds, distributed as equally as possible. The dogs were at least 12 months of age and the sex distribution was as equal as possible within panels. A choice of two bowls each with the same amount food, the test and the control diets, was offered simultaneously. The maximum length of the time the products were offered to the dogs was 20 minutes. Water was available at all times via an automatic water system. Bowl assignment for the foods was always counterbalanced.
At the end of a test, food consumption for each pet food for each dog was determined by subtracting the amount of food remaining in the bowls from what was initially offered to the dogs. A dog's preference was determined based on which food was most consumed.
The experiment was repeated twice.

## CCCCCCCC/C=C\CCCCCCCC(=O)NCCO [OEA, N-oleoyl-ethanolamide]
Food of Table 9 (0.41% OEA in basal meal) vs control Ex 7
  Effect of OEA on palatability of the pet food (result in words): enhanced the palatability
Foods of Table 8 (0.066-0.566% OEA) vs control Ex 1
  Effect of OEA on palatability of the pet foods (result in words): enhanced the palatability
